{"source": "PubChem BioAssay AID623871", "about": "(Sanford-Burnham Center for Chemical Genomics, 2012)", "note": "Calls of active or inactive are those of the source.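 Rule for the calls: active = IC50 at or below 10 µM; inactive = the rest.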", "data": [{"tested_on": "H9c2 cardiomyoblasts, 2-deoxyglucose injury, ATP luminescence, 2 h", "assay": "cardiomyoblast survival under 2-deoxyglucose stress – cell-based, H9c2, ATP luminescence, SAR follow-up (AID 623871)", "values": [{"smiles": "CCN(CC)C(=O)C(=O)c1c(-c2ccccc2)[nH]c2ccccc12", "IC50": "> 79 µM (inactive)"}, {"smiles": "Cc1ccccc1N(C(=O)c1snc(C(N)=O)c1N)C(C(=O)NCc1ccc(F)cc1)c1ccc(O)cc1", "note": "(centres undefined)", "IC50": "> 79 µM (inactive)"}, {"smiles": "COc1ccc(-n2cc(-c3ccccc3)c3c(N4CCCCC4)ncnc32)cc1", "IC50": "10.6 µM (inactive)"}, {"smiles": "CCN(CC)S(=O)(=O)c1cc(C(=O)N2CCN(Cc3cccc4cccnc34)CC2)ccc1C", "IC50": "> 79 µM (inactive)"}, {"smiles": "COc1ccc(-c2cc(C(=O)N(C)C)c3ccccc3n2)cc1OC", "IC50": "> 79 µM (inactive)"}, {"smiles": "COc1ccc(NC(=O)CN(C)C(=O)c2cc(-c3cccs3)nn2-c2ccccc2)cc1", "IC50": "38.6 µM (inactive)"}, {"smiles": "COc1cc(-c2cc(C(=O)Nc3cccc(C(C)=O)c3)c3ccccc3n2)cc(OC)c1OC", "IC50": "10.7 µM (inactive)"}, {"smiles": "Cc1ccc2cc(CN(Cc3cccnc3)S(=O)(=O)c3ccc(F)cc3)c(=O)[nH]c2c1", "IC50": "> 79 µM (inactive)"}, {"smiles": "NC(=O)c1nsc(C(=O)N(Cc2ccccc2)C(C(=O)NCc2ccc(F)cc2)c2ccc(O)cc2)c1N", "note": "(centres undefined)", "IC50": "> 79 µM (inactive)"}, {"smiles": "COc1ccc(N2C(=O)c3ccccc3N3C(=O)c4c(ccc(OC)c4OC)C23)cc1", "note": "(centres undefined)", "IC50": "29.3 µM (inactive)"}, {"smiles": "COc1ccc(-c2cc(C(=O)NCc3ccccc3)c3ccccc3n2)cc1OC", "IC50": "> 79 µM (inactive)"}, {"smiles": "COc1ccc(-c2cc(C(=O)N(C)Cc3ccc(OC)c(OC)c3OC)c3ccccc3n2)cc1OC", "IC50": "7.31 µM"}, {"smiles": "COc1cccc(NC(=O)CN(C)C(=O)c2cc(-c3cccs3)nn2-c2ccccc2)c1", "IC50": "> 79 µM (inactive)"}, {"smiles": "Cc1ccc(S(=O)(=O)N2CCN(C(=O)c3cc(=O)[nH]c4ccccc34)CC2)cc1C", "IC50": "33.4 µM (inactive)"}, {"smiles": "CC(C)CCNC(=O)C(c1ccc(O)cc1)N(C(=O)c1snc(C(N)=O)c1N)c1ccccc1F", "note": "(centres undefined)", "IC50": "> 79 µM (inactive)"}, {"smiles": "COCCn1c(SC(C(=O)Nc2cc(C)ccc2C)c2ccccc2)nc2ccccc2c1=O", "note": "(centres undefined)", "IC50": "4.01 µM (inactive)"}, {"smiles": "COc1ccc(-n2cc(-c3ccccc3)c3c(N4CCCC4)ncnc32)cc1", "IC50": "> 79 µM (inactive)"}, {"smiles": "NC(=O)c1nsc(C(=O)N(c2cccc(F)c2)C(C(=O)NC2CCCC2)c2ccc(O)cc2)c1N", "note": "(centres undefined)", "IC50": "> 79 µM (inactive)"}, {"smiles": "COc1ccc2cc(C(=O)N3CCN(S(=O)(=O)c4cc(C)ccc4C)CC3)c(C)nc2c1", "IC50": "> 79 µM (inactive)"}, {"smiles": "COc1ccc(-c2cc(C(=O)NCc3ccco3)c3ccccc3n2)cc1OC", "IC50": "39.2 µM (inactive)"}, {"smiles": "COCCNC(=O)C(c1ccc(O)cc1)N(C(=O)c1snc(C(N)=O)c1N)c1ccccc1F", "note": "(centres undefined)", "IC50": "> 79 µM (inactive)"}, {"smiles": "COc1ccc2c(c1OC)C(=O)N1c3ccccc3C(=O)N(c3ccc(F)cc3)C21", "note": "(centres undefined)", "IC50": "39.4 µM (inactive)"}, {"smiles": "CCCn1c(SC(C(=O)Nc2cccc(OC)c2)c2ccccc2)nc2ccccc2c1=O", "note": "(centres undefined)", "IC50": "> 79 µM (inactive)"}, {"smiles": "COc1ccc(-n2cc(-c3ccccc3)c3c(NCc4ccccc4)ncnc32)cc1", "IC50": "13.6 µM (inactive)"}, {"smiles": "Cc1ccc(-c2[nH]c3ccccc3c2C(=O)C(=O)N(C)C)cc1", "IC50": "> 79 µM (inactive)"}, {"smiles": "COc1ccc2cc(C(=O)N3CCN(S(=O)(=O)c4ccc(C)cc4C)CC3)c(C)nc2c1", "IC50": "> 79 µM (inactive)"}, {"smiles": "Cc1ccc2cc(CN(C)S(=O)(=O)c3ccc(F)cc3)c(=O)[nH]c2c1", "IC50": "> 79 µM (inactive)"}, {"smiles": "Cc1ccc(NC(=O)CN(C)C(=O)c2cc(-c3cccs3)nn2-c2ccccc2)cc1", "IC50": "27.2 µM (inactive)"}, {"smiles": "COc1ccc2c(=O)c(C(=O)N3CCN(S(=O)(=O)c4c(C)cc(C)cc4C)CC3)c[nH]c2c1", "IC50": "> 79 µM (inactive)"}, {"smiles": "CCN(CC(=O)Nc1ccc(OC)cc1)C(=O)c1cc(-c2cccs2)nn1-c1ccccc1", "IC50": "6.24 µM"}, {"smiles": "O=C(C(=O)N1CCCCC1)c1c(-c2ccccc2)[nH]c2ccccc12", "IC50": "> 79 µM (inactive)"}, {"smiles": "CCCN(CC(=O)Nc1ccccc1OC)C(=O)c1cc(-c2cccs2)nn1-c1ccccc1", "IC50": "> 79 µM (inactive)"}, {"smiles": "Cc1ccc(C)c(S(=O)(=O)N2CCN(C(=O)c3cc4cc(C)ccc4nc3C)CC2)c1", "IC50": "46.2 µM (inactive)"}, {"smiles": "COc1cccc(CN(C)C(=O)c2cc(-c3ccc(OC)c(OC)c3)nc3ccccc23)c1", "IC50": "15.1 µM (inactive)"}, {"smiles": "O=c1[nH]c2ccccc2cc1CN(Cc1ccco1)S(=O)(=O)c1ccc(F)cc1", "IC50": "> 79 µM (inactive)"}, {"smiles": "Cc1ccc(S(=O)(=O)N(Cc2cccnc2)Cc2cc3ccccc3[nH]c2=O)cc1", "IC50": "> 79 µM (inactive)"}, {"smiles": "O=C(C(=O)N1CCCC1)c1c(-c2ccccc2)[nH]c2ccccc12", "IC50": "> 79 µM (inactive)"}, {"smiles": "COc1ccccc1N1C(=O)c2ccccc2N2C(=O)c3c(ccc(OC)c3OC)C12", "note": "(centres undefined)", "IC50": "42.5 µM (inactive)"}, {"smiles": "COc1ccc2c(c1OC)C(=O)N1c3ccccc3C(=O)N(c3ccccc3C)C21", "note": "(centres undefined)", "IC50": "36.1 µM (inactive)"}, {"smiles": "O=C1c2ccccc2N2C(=O)c3ccccc3[C@H]2N1c1ccccc1", "IC50": "34.3 µM (inactive)"}, {"smiles": "COc1ccc(S(=O)(=O)N(Cc2cccnc2)Cc2cc3ccccc3[nH]c2=O)cc1", "IC50": "53.9 µM (inactive)"}, {"smiles": "COc1cccc(CN(C)C(=O)c2cc(-c3ccccc3)nc3ccc(C)cc23)c1OC", "IC50": "> 79 µM (inactive)"}, {"smiles": "COc1cccc(NC(=O)C(Sc2nc3ccccc3c(=O)n2CC(C)C)c2ccccc2)c1", "note": "(centres undefined)", "IC50": "19.5 µM (inactive)"}, {"smiles": "COc1ccc2c(c1OC)C(=O)N1c3ccccc3C(=O)N(c3cccc(Br)c3)C21", "note": "(centres undefined)", "IC50": "10.6 µM (inactive)"}]}]}
